From patent publication US20230054093A1, “TREATMENT” (priority 2019, published 2023)

Legend:
[1] = target: T1, Sp2CBMTD (SpOrig, SEQ ID NO: 7) variant HEX6 V239A/V246G/S342D/R403K, SEQ ID NO: 8 (Streptococcus pneumoniae, UniProt P62575, V239A/V246G); assay: Biacore characterization of hexameric Sp2CBMTD variants; assay type: binding, Streptococcus pneumoniae (CBM); Pseudomonas aeruginosa (TD); set-up: key: Green: green indicates that the variant closely resembles its WT counterpart for that particular characteristic; Green’: pale green (green’) or yellow indicate increasing degrees of differences; Yellow: pale green (green’) or yellow indicate increasing degrees of differences; Orange: Red or orange indicate significant differences; Red or orange indicate significant differences; conditions: qualitative colour code vs WT hexamer
T1 construct: trimerises; pHISTEV 6His, E. coli
Excerpt: (§1) (iv) Surface plasmon resonance (SPR) to measure binding affinity to sialyllactose

[2] = target: T2, Sp2CBMTD (SpOrig, SEQ ID NO: 7) variant HEX17 A162P/V239A/V246G/S342D/R403K, SEQ ID NO: 9 (Streptococcus pneumoniae, UniProt P62575, A162P/V239A/V246G); assay: as above; assay type: binding, Streptococcus pneumoniae (CBM); Pseudomonas aeruginosa (TD); set-up: key: Green: green indicates that the variant closely resembles its WT counterpart for that particular characteristic; Green’: pale green (green’) or yellow indicate increasing degrees of differences; Yellow: pale green (green’) or yellow indicate increasing degrees of differences; Orange: Red or orange indicate significant differences; Red or orange indicate significant differences; conditions: qualitative colour code vs WT hexamer
T2 construct: PDB 2w38); trimerises; pHISTEV 6His, E. coli
Excerpt: as §1

[3] = target: T3, Streptococcus pneumoniae NanA sialidase CBM (SpCBM, SEQ ID NO: 4) variant Im20 V239T (Streptococcus pneumoniae, UniProt P62575, V239T); assay: Surface plasmon resonance (SPR, Biacore) binding affinity to sialyllactose; set-up: key: Green: green indicates that the variant closely resembles its WT counterpart for that particular characteristic; Green’: pale green (green’) or yellow indicate increasing degrees of differences; Yellow: pale green (green’) or yellow indicate increasing degrees of differences; Orange: Red or orange indicate significant differences; Red or orange indicate significant differences; conditions: qualitative colour code vs WT
T3 construct: SpCBM, residues 121-305 of S. pneumoniae NanA sialidase; 6His (pHISTEV) (cleaved yes); made in house; host or cells: E. coli
Excerpt: (§2) The 13 soluble proteins were expressed in E. coli and purified by immobilized metal affinity chromatography (IMAC), followed by TEV digestion to remove the 6His-tag, then reverse IMAC and size exclusion chromatography (SEC).
(§3) Ten purified domains (WTSp, Im19, Im20, Im21, Im22, Im23, WTTD, Im24, Im26 and Im27) were further characterized by:
as §1

[4] = target: T4, Streptococcus pneumoniae NanA sialidase CBM (SpCBM, residues 121-305), wild type WTSp, SEQ ID NO: 4 (Streptococcus pneumoniae, UniProt P62575); assay: as above; set-up: key: Green: green indicates that the variant closely resembles its WT counterpart for that particular characteristic; Green’: pale green (green’) or yellow indicate increasing degrees of differences; Yellow: pale green (green’) or yellow indicate increasing degrees of differences; Orange: Red or orange indicate significant differences; Red or orange indicate significant differences; conditions: qualitative colour code vs WT
T4 construct: SpCBM, residues 121-305 of S. pneumoniae NanA sialidase; 6His (pHISTEV) (cleaved yes); made in house; host or cells: E. coli
Excerpt: as §2, §3, §1

[5] = target: T5, Streptococcus pneumoniae NanA sialidase CBM (SpCBM, SEQ ID NO: 4) variant Im22 I286A (Streptococcus pneumoniae, UniProt P62575, I286A); assay: as above; set-up: key: Green: green indicates that the variant closely resembles its WT counterpart for that particular characteristic; Green’: pale green (green’) or yellow indicate increasing degrees of differences; Yellow: pale green (green’) or yellow indicate increasing degrees of differences; Orange: Red or orange indicate significant differences; Red or orange indicate significant differences; conditions: qualitative colour code vs WT
T5 construct: SpCBM, residues 121-305 of S. pneumoniae NanA sialidase; 6His (pHISTEV) (cleaved yes); made in house; host or cells: E. coli
Excerpt: as §2, §3, §1

[6] = target: T6, Streptococcus pneumoniae NanA sialidase CBM (SpCBM, SEQ ID NO: 4) variant Im19 V239A (Streptococcus pneumoniae, UniProt P62575, V239A); assay: as above; set-up: key: Green: green indicates that the variant closely resembles its WT counterpart for that particular characteristic; Green’: pale green (green’) or yellow indicate increasing degrees of differences; Yellow: pale green (green’) or yellow indicate increasing degrees of differences; Orange: Red or orange indicate significant differences; Red or orange indicate significant differences; conditions: qualitative colour code vs WT
T6 construct: SpCBM, residues 121-305 of S. pneumoniae NanA sialidase; 6His (pHISTEV) (cleaved yes); made in house; host or cells: E. coli
Excerpt: as §2, §3, §1

[7] = target: T7, Streptococcus pneumoniae NanA sialidase CBM (SpCBM, SEQ ID NO: 4) variant Im21 V246G (Streptococcus pneumoniae, UniProt P62575, V246G); assay: as above; set-up: key: Green: green indicates that the variant closely resembles its WT counterpart for that particular characteristic; Green’: pale green (green’) or yellow indicate increasing degrees of differences; Yellow: pale green (green’) or yellow indicate increasing degrees of differences; Orange: Red or orange indicate significant differences; Red or orange indicate significant differences; conditions: qualitative colour code vs WT
T7 construct: SpCBM, residues 121-305 of S. pneumoniae NanA sialidase; 6His (pHISTEV) (cleaved yes); made in house; host or cells: E. coli
Excerpt: as §2, §3, §1

[8] = target: T8, Streptococcus pneumoniae NanA sialidase CBM (SpCBM, SEQ ID NO: 4) variant Im23 Y292E (Streptococcus pneumoniae, UniProt P62575, Y292E); assay: as above; set-up: key to Biacore (binding affinity to sialyllactose): Green: green indicates that the variant closely resembles its WT counterpart for that particular characteristic; Green’: pale green (green’) or yellow indicate increasing degrees of differences; Yellow: pale green (green’) or yellow indicate increasing degrees of differences; Orange: Red or orange indicate significant differences; Red or orange indicate significant differences
T8 construct: SpCBM, residues 121-305 of S. pneumoniae NanA sialidase; 6His (pHISTEV) (cleaved yes); made in house; host or cells: E. coli
Excerpt: as §2, §3, §1

`CC(=O)N[C@H]1[C@H]([C@H](O)[C@H](O)CO)O[C@@](O[C@H]2[C@@H](O)[C@@H](CO)O[C@@H](O[C@H]3[C@H](O)[C@@H](O)C(O)O[C@@H]3CO)[C@@H]2O)(C(=O)O)C[C@@H]1O` (stereo partly drawn) [sialyllactose] was tested, and the Biacore [1] was “Green”, the Biacore [2] was “Green” and the “Biacore (binding affinity to sialyllactose)” value [3] was “Green”. The “Biacore (binding affinity to sialyllactose)” value [4] was “Green”, the “Biacore (binding affinity to sialyllactose)” value [5] was “Green” and the “Biacore (binding affinity to sialyllactose)” value [6] was “Green”. The “Biacore (binding affinity to sialyllactose)” value [7] was “Green”, the ligand affinity ([8]; in words, compared with WT) was “reduced ligand affinity” and the “Biacore (binding affinity to sialyllactose)” value ([8]; qualitative colour code vs WT) was “Yellow”.
